Laboratory results from US20140005163A1 (NOVARTIS AG, priority 2010, published 2014).
pIC50: −log10 of the molar value.

Each compound was assayed on PKB Ser473 phosphorylation in Rat1-myr-HA-p110 delta cells (assay: Reverse protein array assay, PKB Ser473 phosphorylation in Rat1-myr-p110 delta cells). Settings: read-out: p-PKB IC50.
Type: cell-based
Method in brief: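 Rat1 cells expressing myristoylated HA-tagged p110 alpha, beta or delta were plated for at least 20 h, then exposed to 8-step serial compound dilutions (0.2% DMSO final) for 30 min at 37 °C. Lysates were spotted at four dilutions on protein microarrays, and relative fluorescence intensity of phospho-Ser473 PKB was calculated.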

Row | SMILES | pIC50
1 | [2H]C([2H])([2H])Nc1ncc(-c2ccc3ncc4c(c3c2)n(-c2c(C)nn(C)c2C)c(=O)n4C)cc1C(F)(F)F [Example 143, 3-Methyl-8-(6-trideuteromethylamino-5-trifluoromethyl-pyridin-3-yl)-1-(1,3,5-trimethyl-1H-pyrazol-4-yl)-1,3-dihydro-imidazo[4,5-c]quinolin-2-one] | 7.07
2 | Cc1nn(C)cc1-n1c(=O)n(C)c2cnc3ccc(-c4cccc(OC(C)C)c4F)cc3c21 [Example 83, 1-(1,3-Dimethyl-1H-pyrazol-4-yl)-8-(2-fluoro-3-isopropoxy-phenyl)-3-methyl-1,3-dihydro-imidazo[4,5-c]quinolin-2-one] | 6.29
3 | CCNc1cc(-c2ccc3ncc4c(c3c2)n(-c2cn(C)nc2Cl)c(=O)n4C)cnc1OC [Example 90.1, 1-(3-Chloro-1-methyl-1H-pyrazol-4-yl)-8-(5-ethylamino-6-methoxy-pyridin-3-yl)-3-methyl-1,3-dihydro-imidazo[4,5-c]quinolin-2-one] | > 8.30
4 | CNc1ncc(-c2ccc3ncc4c(c3c2)n(-c2c(C)nn(C)c2C)c(=O)n4C)cn1 [Example 80.2] | 6.49
5 | COc1ncc(-c2ccc3ncc4c(c3c2)n(-c2cn(C)nc2Cl)c(=O)n4C)cc1CO [Example 200, 1-(3-Chloro-1-methyl-1H-pyrazol-4-yl)-8-(5-hydroxymethyl-6-methoxy-pyridin-3-yl)-3-methyl-1,3-dihydro-imidazo[4,5-c]quinolin-2-one] | 8.15
6 | CC(=O)Nc1cc(-c2ccc3ncc4c(c3c2)n(-c2cn(C)nc2C)c(=O)n4C)cnc1Cl [Example 222, N-{2-Chloro-5-[1-(1,3-dimethyl-1H-pyrazol-4-yl)-3-methyl-2-oxo-2,3-dihydro-1H-imidazo[4,5-c]quinolin-8-yl]-pyridin-3-yl}-acetamide] | 7.17
7 | Cc1nn(C)cc1-n1c(=O)n(C)c2cnc3ccc(-c4cnc(N)nc4)cc3c21 [Example 81.1, 8-(2-Amino-pyrimidin-5-yl)-1-(1,3-dimethyl-1H-pyrazol-4-yl)-3-methyl-1,3-dihydro-imidazo[4,5-c]quinolin-2-one] | 7.96
8 | COCCNC(=O)c1cc(-c2ccc3ncc4c(c3c2)n(-c2cn(C)nc2C)c(=O)n4C)cnc1N [Example 226, 2-Amino-5-[1-(1,3-dimethyl-1H-pyrazol-4-yl)-3-methyl-2-oxo-2,3-dihydro-1H-imidazo[4,5-c]quinolin-8-yl]-N-(2-methoxy-ethyl)-nicotinamide] | 6.36
9 | Cc1nn(C)cc1-n1c(=O)n(C)c2cnc3ccc(-c4cnc(F)c(N(C)C)c4)cc3c21 [Example 151, 8-(5-Dimethylamino-6-fluoro-pyridin-3-yl)-1-(1,3-dimethyl-1H-pyrazol-4-yl)-3-methyl-1,3-dihydro-imidazo[4,5-c]quinolin-2-one] | 7.40
10 | Cc1nn(C(C)C)cc1-n1c(=O)n(C)c2cnc3ccc(-c4cncc(C(O)(CF)CF)c4)cc3c21 [Example 219, 8-[5-(2-Fluoro-1-fluoromethyl-1-hydroxy-ethyl)-pyridin-3-yl]-1-(1-isopropyl-3-methyl-1H-pyrazol-4-yl)-3-methyl-1,3-dihydro-imidazo[4,5-c]quinolin-2-one] | 6.53
11 | COCc1cc(-c2ccc3ncc4c(c3c2)n(-c2cn(C)nc2Cl)c(=O)n4C)cnc1OC [Example 201, 1-(3-Chloro-1-methyl-1H-pyrazol-4-yl)-8-(6-methoxy-5-methoxymethyl-pyridin-3-yl)-3-methyl-1,3-dihydro-imidazo[4,5-c]quinolin-2-one] | 8.00
12 | COc1ncc(-c2ccc3ncc4c(c3c2)n(-c2cn(C)nc2C)c(=O)n4C)cc1N(C)C(C)=O [Example 62, N-{5-[1-(1,3-Dimethyl-1H-pyrazol-4-yl)-3-methyl-2-oxo-2,3-dihydro-1H-imidazo[4,5-c]quinolin-8-yl]-2-methoxy-pyridin-3-yl}-N-methyl-acetamide] | 6.56
13 | Cc1noc(C)c1-n1c(=O)n(C)c2cnc3ccc(-c4cnc(N)c(C(F)(F)F)c4)cc3c21 [Example 25.5, 8-(6-Amino-5-trifluoromethyl-pyridin-3-yl)-1-(3,5-dimethyl-isoxazol-4-yl)-3-methyl-1,3-dihydro-imidazo[4,5-c]quinolin-2-one] | 6.80
14 | Cc1nn(C(C)C)cc1-n1c(=O)n(C)c2cnc3ccc(-c4cnc(N)c(C(F)(F)F)c4)cc3c21 [Example 25.4, 8-(6-Amino-5-trifluoromethyl-pyridin-3-yl)-1-(1-isopropyl-3-methyl-1H-pyrazol-4-yl)-3-methyl-1,3-dihydro-imidazo[4,5-c]quinolin-2-one] | 8.05
15 | Cc1nn(CC(=O)N(C)C)c(C)c1-n1c(=O)n(C)c2cnc3ccc(-c4cnc(N)c(C(F)(F)F)c4)cc3c21 [Example 25.2, 2-{4-[8-(6-Amino-5-trifluoromethyl-pyridin-3-yl)-3-methyl-2-oxo-2,3-dihydro-imidazo[4,5-c]quinolin-1-yl]-3,5-dimethyl-pyrazol-1-yl}-N,N-dimethyl-acetamide] | 6.61

The next lines start with the values.

Row | pIC50 | SMILES
16 | 8.22 | CNc1ccc(-c2ccc3ncc4c(c3c2)n(-c2cn(C)nc2Cl)c(=O)n4C)cn1 [Example 118.5, 1-(3-Chloro-1-methyl-1H-pyrazol-4-yl)-3-methyl-8-(6-methylamino-pyridin-3-yl)-1,3-dihydro-imidazo[4,5-c]quinolin-2-one]
17 | 6.25 | CNc1ncc(-c2ccc3ncc4c(c3c2)n(-c2c(C)noc2C)c(=O)n4C)cc1Cl [Example 146.6, 8-(5-Chloro-6-methylamino-pyridin-3-yl)-1-(3,5-dimethyl-isoxazol-4-yl)-3-methyl-1,3-dihydro-imidazo[4,5-c]quinolin-2-one]
18 | 7.25 | CCn1cc(-n2c(=O)n(C)c3cnc4ccc(-c5cncc(C6(C#N)CCC6)c5)cc4c32)c(C)n1 [Example 221.2, 1-{5-[1-(1-Ethyl-3-methyl-1H-pyrazol-4-yl)-3-methyl-2-oxo-2,3-dihydro-1H-imidazo[4,5-c]quinolin-8-yl]-pyridin-3-yl}-cyclobutanecarbonitrile]
19 | 7.62 | CNc1ncc(-c2ccc3ncc4c(c3c2)n(-c2cn(C(C)C)nc2C)c(=O)n4C)cc1Cl [Example 146.3, 8-(5-Chloro-6-methylamino-pyridin-3-yl)-1-(1-isopropyl-3-methyl-1H-pyrazol-4-yl)-3-methyl-1,3-dihydro-imidazo[4,5-c]quinolin-2-one]
20 | 7.72 | Cc1nn(C)cc1-n1c(=O)n(C)c2cnc3ccc(-c4cnc(N)c(F)c4)cc3c21 [Example 142.2, 8-(6-Amino-5-fluoro-pyridin-3-yl)-1-(1,3-dimethyl-1H-pyrazol-4-yl)-3-methyl-1,3-dihydro-imidazo[4,5-c]quinolin-2-one]
21 | 7.30 | COCc1cc(-c2ccc3ncc4c(c3c2)n(-c2cn(C(C)C)nc2C)c(=O)n4C)cnc1N [Example 168.1, 8-(6-Amino-5-methoxymethyl-pyridin-3-yl)-1-(1-isopropyl-3-methyl-1H-pyrazol-4-yl)-3-methyl-1,3-dihydro-imidazo[4,5-c]quinolin-2-one]
22 | 7.30 | CCOCc1cc(-c2ccc3ncc4c(c3c2)n(-c2cn(CC)nc2C)c(=O)n4C)cnc1N [Example 166.2, 8-(6-Amino-5-ethoxymethyl-pyridin-3-yl)-1-(1-ethyl-3-methyl-1H-pyrazol-4-yl)-3-methyl-1,3-dihydro-imidazo[4,5-c]quinolin-2-one]
